Measurements reported in the Deep4Chem optical property database.
Values belong to the compound of their own block, whether it stands above or below them.

Experiment: solvent given as SMILES

Compound: CCN1\C(=C/C=C/C=C/C2=[N+](CC)c3ccc4cc(Br)ccc4c3C2(C)C)C(C)(C)c2c1ccc1cc(Br)ccc21
emission maximum (in C1CCOC1): 709 nm
emission maximum (in CC#N): 699 nm
emission maximum (in CC(C)=O): 703 nm
emission maximum (in CCO): 705 nm
emission maximum (in CN(C)C=O): 705 nm
emission maximum (in CO): 702 nm
emission maximum (in CS(C)=O): 709 nm
emission maximum (in ClCCl): 714 nm

Compound: c1ccc(-c2nc(-c3ccc(N4c5ccccc5C(c5ccccc5)(c5ccccc5)c5ccccc54)cc3)cc(-c3ccccn3)n2)cc1
emission maximum (in Cc1ccccc1): 460 nm
emission maximum (in O=P(c1ccccc1)(c1ccccc1)c1ccccc1Oc1ccccc1P(=O)(c1ccccc1)c1ccccc1): 468 nm

emission maximum (in ClCCl): 687 nm
Compound: CCOC(=O)COc1ccc(/C=C/C2=C3C(C)=CC(C)=[N+]3[B-](F)(F)n3c2c2ccccc2c3-c2[nH]c(C)cc2C)cc1

Compound: COc1ccc(C2=CC(c3cc(OC)cc(OC)c3)=[O+][B-](F)(F)O2)cc1
emission maximum (in CC#N): 587.1 nm
emission maximum (in CC(C)=O): 556.04 nm
emission maximum (in CCCCCC): 410.21 nm
emission maximum (in Cc1ccccc1): 450.94 nm
emission maximum (in ClCCl): 525 nm

Compound: CCCCCCN(CCCCCC)c1ccc(C#Cc2ccc(/C=C/c3ccc(-c4ccc(/C=C/c5ccc(C#Cc6ccc(N(CCCCCC)CCCCCC)cc6)cc5)cc4)cc3)cc2)cc1
emission maximum (in Cc1ccccc1): 452 nm

emission maximum (in ClC(Cl)Cl): 446 nm
Compound: F[B-]1(F)OC(c2cccc(Br)c2)=Cc2c3ccccc3c3ccccc3[n+]21

Compound: CCCCCCOc1ccc(N(c2ccc(OCCCCCC)cc2)c2ccc(-c3sc(-c4ccc(N(c5ccc(OCCCCCC)cc5)c5ccc(OCCCCCC)cc5)cc4)c4nc(-c5ccccc5)c(-c5ccccc5)nc34)cc2)cc1
emission maximum (in C1CCOC1): 770 nm
emission maximum (in CC(C)=O): 793 nm
emission maximum (in CCOC(C)=O): 768 nm
emission maximum (in CCOCC): 751 nm
emission maximum (in CN(C)C=O): 806 nm
emission maximum (in Cc1ccccc1): 748 nm
emission maximum (in ClC(Cl)Cl): 777 nm
emission maximum (in ClCCl): 793 nm

emission maximum (in CC#N): 522 nm
Compound: N#C/C(=C\c1ccc(C#N)cc1)c1nc(-c2ccc(Cl)cc2)c(-c2ccccc2)s1

Compound: CCCCCCCCCCCCOc1ccc(C#Cc2ccc(C#Cc3ccc(OCCCCCCCCCCCC)c(OCCCCCCCCCCCC)c3)c3nc4c5ccccc5c5ccccc5c4nc23)cc1OCCCCCCCCCCCC
emission maximum (in C1CCOC1): 558 nm
emission maximum (in Cc1ccccc1): 541 nm
emission maximum (in ClCCl): 566 nm

emission maximum (in CC#N): 426 nm
emission maximum (in ClCCCl): 425 nm
Compound: Cc1ccc2nc3c(=O)[nH]c(=O)[nH]c3nc2c1

emission maximum (in C1COCCO1): 550 nm
Compound: CC(=O)Nc1ccc(C2=C/C(=C\c3ccc([N+](=O)[O-])cc3)C(=O)O2)cc1

emission maximum (in ClCCl): 500 nm
Compound: CCCCOc1c(-c2ccc(C=O)cc2)cc2cc(-c3ccc(C=O)cc3)c(OCCCC)c3c4c(OCCCC)c(-c5ccc(C=O)cc5)cc5cc(-c6ccc(C=O)cc6)c(OCCCC)c(c1c23)c54

Compound: c1ccc(N(c2ccccc2)c2c3ccccc3c(N(c3ccccc3)c3ccccc3)c3ccccc23)cc1
emission maximum (in Cc1ccccc1): 510 nm

emission maximum (in ClCCl): 358 nm
Compound: C[Si](C)(C)c1ccc(-c2nc3ccccc3n2-c2ccccc2)cc1

Compound: N#Cc1c(-n2c3ccc(Br)cc3c3cc(Br)ccc32)c(-n2c3ccc(Br)cc3c3cc(Br)ccc32)c(C#N)c(-n2c3ccc(Br)cc3c3cc(Br)ccc32)c1-n1c2ccc(Br)cc2c2cc(Br)ccc21
emission maximum (in Cc1ccccc1): 546 nm
